pEC50: −log10 of the molar value. Where two headings read alike, the source gives them in different places.
Experiments:
[1] = target: CLK2 kinase (Homo sapiens, UniProt P49760); assay: CLK2 kinase activity assay (Z-lyte FRET); type: biochemical; conditions: Z-lyte Ser/Thr 6 peptide, 60 μM ATP, 1 h at room temperature;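 also: FRET read-out as coumarin to fluorescein emission ratio, unphosphorylated peptide as 0% and phosphorylated peptide as 100% controls, duplicate reactions, non-linear regression fit of dose-response curves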
Sequence of CLK2 kinase (P49760 whole entry): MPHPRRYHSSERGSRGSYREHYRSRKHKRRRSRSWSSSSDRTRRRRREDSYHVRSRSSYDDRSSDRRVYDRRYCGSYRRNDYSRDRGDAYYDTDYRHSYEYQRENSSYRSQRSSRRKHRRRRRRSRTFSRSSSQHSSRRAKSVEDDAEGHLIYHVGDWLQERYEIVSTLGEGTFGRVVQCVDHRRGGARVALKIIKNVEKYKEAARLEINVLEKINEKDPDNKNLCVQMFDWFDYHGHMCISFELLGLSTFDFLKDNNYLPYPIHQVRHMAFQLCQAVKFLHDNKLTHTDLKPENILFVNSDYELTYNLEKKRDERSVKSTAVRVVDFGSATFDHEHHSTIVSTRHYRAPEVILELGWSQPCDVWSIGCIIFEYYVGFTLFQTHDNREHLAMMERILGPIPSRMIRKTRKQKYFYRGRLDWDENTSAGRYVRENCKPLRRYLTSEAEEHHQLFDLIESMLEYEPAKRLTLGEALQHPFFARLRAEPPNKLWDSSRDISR

[2] = target: CLK3 kinase (Homo sapiens, UniProt P49761); assay: CLK3 kinase activity assay (Z-lyte FRET); type: biochemical; conditions: Z-lyte Ser/Thr 18 peptide, 156 μM ATP, 1 h at room temperature;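 also: kinase activity read as coumarin/fluorescein emission ratio by FRET, unphosphorylated peptide as 0% and phosphorylated peptide as 100% control, values from non-linear regression of dose-response curves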
Sequence of CLK3 kinase (P49761 whole entry): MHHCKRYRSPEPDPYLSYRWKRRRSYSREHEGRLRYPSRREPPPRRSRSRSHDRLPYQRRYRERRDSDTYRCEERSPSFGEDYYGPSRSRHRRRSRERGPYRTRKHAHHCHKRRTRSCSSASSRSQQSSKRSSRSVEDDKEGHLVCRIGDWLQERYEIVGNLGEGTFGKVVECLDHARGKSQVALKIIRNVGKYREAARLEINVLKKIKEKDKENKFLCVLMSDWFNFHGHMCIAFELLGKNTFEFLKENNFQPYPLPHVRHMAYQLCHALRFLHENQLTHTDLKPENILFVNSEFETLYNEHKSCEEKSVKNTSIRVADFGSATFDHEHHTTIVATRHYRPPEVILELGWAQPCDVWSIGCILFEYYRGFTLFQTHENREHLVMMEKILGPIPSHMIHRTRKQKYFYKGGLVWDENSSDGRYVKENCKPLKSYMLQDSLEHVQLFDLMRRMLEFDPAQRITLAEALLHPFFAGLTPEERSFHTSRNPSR

[3] = tested on: primary human mesenchymal stem cells (hMSCs); assay: Chondrogenesis screening using primary human mesenchymal stem cells; type: cell-based; conditions: hMSC chondrogenesis; for EC50: concentration required to induce 50% levels of chondrogenesis with TGF-β3 as positive control, read-out: Conc (nM) of 50% TGF-β3 activity; for Emax: read-out: Max. Activity as % TGF-β3 activity
Excerpt: Representative compounds were screened using primary human mesenchymal stem cells (hMSCs) to determine their ability to induce chondrogenesis (process by which cartilage is developed).
Human Mesenchymal Stem Cell Culture: Primary human mesenchymal stem cells (hMSCs) were purchased from Lonza (Walkersville, Md.) and expanded in Mesenchymal Stem Cell Growth Media (Lonza). Cells between passage 3 and 6 were used for the experiments.
Area of nodules in each well was normalized to the average of 3 DMSO treated wells on the same plate using Excel (Microsoft Inc.). The normalized averages (fold change over DMSO) of 2 or 3 replicate wells for each compound concentration were calculated. Due to solubility limitations of some of the compounds, curve fitting was incomplete leading to inaccurate EC50 determinations.
Using TGF-β3 as a positive control, the concentration of representative compounds required to induce 50% levels of chondrogenesis is reported. In addition, the maximum activity of each compound and the respective dose that each compound reached maximum chondrogenesis activity is reported.

[4] = tested on: Wnt pathway activity (SW480 colon carcinoma cells stably expressing the Sp5-Luc reporter); assay: Wnt pathway activity screening assay (Sp5-Luc reporter gene assay); conditions: SW480 cells stably expressing Sp5-Luc reporter, 10-point dose-response from 10 μM, 36 to 48 hours
[5] = Homo sapiens, Mesenchymal stem cells
[6] = Homo sapiens, Mesenchymal stem cells, maximum activity relative to TGF-β3 (10 ng/mL) positive control

SMILES | pEC50 [1] | pEC50 [2] | EC50 [3, 5] [nM] | Emax [3, 6] [%] | pEC50 ([4]; Homo sapiens, SW480, Table 4) | EC50 [3] [nM] | Max. Activity as % TGF-β3 activity ([3]; maximum activity relative to TGF-β3 (10 ng/mL) positive control) [%] | pEC50 ([4]; Table 4)
CN(C)Cc1cncc(-c2cc3c(-c4nc5c(-c6cccc(F)c6)cccc5[nH]4)n[nH]c3cn2)c1 [compound 135] | 8.40 | 7.39 | 100 | 311 | 7.09 | – | – | –
CN(C)Cc1cncc(-c2ccc3[nH]nc(-c4nc5c(-c6cccc(F)c6)cccc5[nH]4)c3n2)c1 [compound 136] | 8.70 | 6.96 | 30 | 84.6 | 6.20 | – | – | –
CN(C)Cc1cncc(-c2cnc3[nH]nc(-c4nc5c(-c6cccc(F)c6)cncc5[nH]4)c3c2)c1 [compound 137] | 9.00 | 8.15 | 30 | 183 | 7.89 | – | – | –
CN(C)Cc1cncc(-c2ccc3[nH]nc(-c4nc5c(-c6cccc(F)c6)nccc5[nH]4)c3n2)c1 [compound 138] | 9.00 | 6.71 | 30 | 75.6 | 5.98 | – | – | –
CN(C)Cc1cncc(-c2ccc3[nH]nc(-c4nc5c(-c6cccc(F)c6)cncc5[nH]4)c3n2)c1 [compound 139] | 8.52 | 7.10 | – | 16.7 | 5.98 | – | – | –
Fc1cccc(-c2cncc3[nH]c(-c4n[nH]c5ccc(-c6cncc(CN7CCC(F)(F)C7)c6)cc45)nc23)c1 [compound 141] | 8.05 | 7.48 | – | 102 | 7.58 | 30 | – | –
Fc1cccc(-c2cncc3[nH]c(-c4n[nH]c5ccc(-c6cncc(CN7CCC(F)(F)C7)c6)cc45)nc23)c1 [compound 142] | 7.68 | 7.05 | – | – | – | 10 | 85.77 | 7.72
Oc1cncc(-c2ccc3[nH]nc(-c4nc5c(-c6cccc(F)c6)cccc5[nH]4)c3c2)c1 [compound 143] | 7.77 | 7.35 | – | 52.2 | 7.96 | – | – | –
Oc1cncc(-c2ccc3[nH]nc(-c4nc5c(-c6cccc(F)c6)nccc5[nH]4)c3n2)c1 [compound 144] | 8.30 | 7.03 | 6.86 | 56.7 | 6.34 | – | – | –
Oc1cncc(-c2ccc3[nH]nc(-c4nc5c(-c6cccc(F)c6)cncc5[nH]4)c3n2)c1 [compound 145] | 8.30 | 7.13 | 20.6 | 53.6 | < 5.00 | – | – | –
Oc1cncc(-c2ccc3[nH]nc(-c4nc5c(-c6cccc(F)c6)ccnc5[nH]4)c3n2)c1 [compound 146] | 8.30 | 6.95 | 2.29 | 59.3 | 6.43 | – | – | –
COc1cncc(-c2cc3c(-c4nc5c(-c6cccc(F)c6)cncc5[nH]4)n[nH]c3cn2)c1 [compound 147] | 8.05 | 6.31 | 300 | 140 | 7.50 | – | – | –
COc1cncc(-c2ccc3[nH]nc(-c4nc5c(-c6cccc(F)c6)nccc5[nH]4)c3n2)c1 [compound 148] | 8.40 | 6.91 | 20.6 | 60.4 | 6.92 | – | – | –
Fc1cccc(-c2ccnc3[nH]c(-c4n[nH]c5ncc(-c6cn[nH]c6)cc45)nc23)c1 [compound 153] | 7.96 | 7.03 | 100 | 110 | 7.52 | – | – | –
Cn1cc(-c2cnc3[nH]nc(-c4nc5c(-c6cccc(F)c6)nccc5[nH]4)c3c2)cn1 [compound 155] | 7.85 | 6.86 | 30 | 74.9 | 7.95 | – | – | –
Cn1cc(-c2cc3c(-c4nc5c(-c6cccc(F)c6)nccc5[nH]4)n[nH]c3cn2)cn1 [compound 156] | 8.00 | 5.74 | 100 | 110 | 8.00 | – | – | –
Cn1cc(-c2cc3c(-c4nc5c(-c6cccc(F)c6)cncc5[nH]4)n[nH]c3cn2)cn1 [compound 157] | 8.70 | 6.38 | 100 | 71 | 7.15 | – | – | –
Cc1ncc(-c2ccc3[nH]nc(-c4nc5c(-c6cccc(F)c6)cccc5[nH]4)c3n2)n1C [compound 158] | 8.52 | 7.08 | 10 | 112 | 6.82 | – | – | –

SMILES | pEC50 [1] | pEC50 [2] | EC50 [3, 5] [nM] | Emax [3, 6] [%] | pEC50 ([4]; Homo sapiens, SW480, Table 4) | EC50 [3] [nM] | Max. Activity as % TGF-β3 activity ([3]; maximum activity relative to TGF-β3 (10 ng/mL) positive control) [%] | pEC50 ([4]; Table 4)
Cc1ncc(-c2cnc3[nH]nc(-c4nc5c(-c6cccc(F)c6)nccc5[nH]4)c3c2)n1C [compound 159] | 9.00 | 7.47 | 100 | 152 | 7.90 | – | – | –
CCC(=O)Nc1cncc(-c2cnc3[nH]nc(-c4nc5c(-c6ccc(F)cc6)cncc5[nH]4)c3c2)c1 [compound 160] | 8.52 | 7.43 | 300 | 143 | 7.96 | – | – | –
CC(C)(C)C(=O)Nc1cncc(-c2ccc3[nH]nc(-c4nc5c(-c6ccc(F)cc6)cncc5[nH]4)c3c2)c1 [compound 161] | 7.77 | 6.98 | 100 | 128 | 8.40 | – | – | –
CC(C)(C)C(=O)Nc1cncc(-c2ccc3[nH]nc(-c4nc5c(-c6ccc(F)cc6)cncc5[nH]4)c3n2)c1 [compound 162] | 8.10 | 5.01 | – | 41.8 | 5.56 | – | – | –
CC(C)CC(=O)Nc1cncc(-c2ccc3[nH]nc(-c4nc5c(-c6ccc(F)cc6)cncc5[nH]4)c3c2)c1 [compound 163] | 7.49 | 7.12 | 100 | 125 | 7.24 | – | – | –
O=C(Nc1cncc(-c2ccc3[nH]nc(-c4nc5c(-c6ccc(F)cc6)cncc5[nH]4)c3c2)c1)C1CCC1 [compound 164] | 7.55 | 7.06 | 100 | 203 | 8.24 | – | – | –
Nc1cncc(-c2ccc3[nH]nc(-c4nc5c(-c6ccccc6F)nccc5[nH]4)c3c2)c1 [compound 165] | 8.70 | 7.70 | 100 | 61.9 | 8.06 | – | – | –
Nc1cncc(-c2ccc3[nH]nc(-c4nc5c(-c6ccccc6F)cccc5[nH]4)c3n2)c1 [compound 166] | 8.52 | 6.68 | 30 | 81.8 | 5.97 | – | – | –
Nc1cncc(-c2ccc3[nH]nc(-c4nc5c(-c6ccccc6F)ccnc5[nH]4)c3c2)c1 [compound 167] | 8.40 | 7.72 | 30 | 113 | 8.70 | – | – | –
Nc1cncc(-c2cnc3[nH]nc(-c4nc5c(-c6ccccc6F)ccnc5[nH]4)c3c2)c1 [compound 168] | 7.48 | 7.12 | 300 | 59.9 | 7.91 | – | – | –
Nc1cncc(-c2ccc3[nH]nc(-c4nc5c(-c6ccccc6F)nccc5[nH]4)c3n2)c1 [compound 169] | 9.00 | 7.30 | 10 | 108 | < 5.00 | – | – | –
Nc1cncc(-c2ccc3[nH]nc(-c4nc5c(-c6ccccc6F)cncc5[nH]4)c3n2)c1 [compound 170] | 9.00 | 7.92 | 10 | 98.2 | < 5.00 | – | – | –
Nc1cncc(-c2ccc3[nH]nc(-c4nc5c(-c6ccccc6F)ccnc5[nH]4)c3n2)c1 [compound 171] | 9.00 | 7.47 | 10 | 127 | < 5.00 | – | – | –
CCCC(=O)Nc1cncc(-c2cnc3[nH]nc(-c4nc5c(-c6ccccc6F)cncc5[nH]4)c3c2)c1 [compound 172] | 8.15 | 6.93 | – | 82.8 | 8.10 | – | – | –
CC(C)C(=O)Nc1cncc(-c2ccc3[nH]nc(-c4nc5c(-c6ccccc6F)cncc5[nH]4)c3n2)c1 [compound 174] | 8.40 | 5.01 | 10 | 181 | < 5.00 | – | – | –
O=C(Nc1cncc(-c2ccc3[nH]nc(-c4nc5c(-c6ccccc6F)cccc5[nH]4)c3n2)c1)C(F)(F)F [compound 175] | 8.30 | 6.74 | – | 40.1 | 6.08 | – | – | –
O=C(Nc1cncc(-c2ccc3[nH]nc(-c4nc5c(-c6ccccc6F)ccnc5[nH]4)c3n2)c1)C(F)(F)F [compound 176] | 8.22 | 6.83 | 10 | 74 | < 5.00 | – | – | –

Source: patent US20230000842A1, “METHODS OF TREATING CARTILAGE DISORDERS THROUGH INHIBITION OF CLK AND DYRK” (SAMUMED, LLC, priority 2019, published 2023)
